Source: ChEMBL document CHEMBL4814074 (Bioorg Med Chem Lett, 2021)

Target: T1, CYP1A2 (Homo sapiens, UniProt P05177)
T1 sequence (P05177 whole entry): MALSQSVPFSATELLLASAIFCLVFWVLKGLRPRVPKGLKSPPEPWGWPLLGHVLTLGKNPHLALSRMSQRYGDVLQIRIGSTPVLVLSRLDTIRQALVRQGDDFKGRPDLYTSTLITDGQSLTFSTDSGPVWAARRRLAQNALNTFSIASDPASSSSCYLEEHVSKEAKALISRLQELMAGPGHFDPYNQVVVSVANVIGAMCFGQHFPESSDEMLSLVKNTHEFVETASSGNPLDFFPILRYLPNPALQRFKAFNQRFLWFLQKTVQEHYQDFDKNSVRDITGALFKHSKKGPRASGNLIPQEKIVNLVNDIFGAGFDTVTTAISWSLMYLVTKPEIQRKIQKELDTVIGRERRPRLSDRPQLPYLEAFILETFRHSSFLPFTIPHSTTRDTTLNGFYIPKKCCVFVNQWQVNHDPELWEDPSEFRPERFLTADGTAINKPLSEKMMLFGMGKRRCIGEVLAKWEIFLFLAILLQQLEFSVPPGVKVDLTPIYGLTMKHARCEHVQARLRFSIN
Assay: Inhibition of CYP1A2 (unknown origin) at 20 uM
Format: ADME
Conditions: not given

| Compound | inhibition at 20 µM [%] |
| --- | --- |
| Cc1cc2ncc(-c3ccc(OC(C)(C)C)cc3)n2cc1-c1ccc(OC(C)C)cc1 | < 21 |
| Cc1cc2ncc(-c3ccc(OC(C)C)cc3)n2cc1-c1ccc(OC(C)C)cc1 | < 21 |
| Cc1cc2ncn(-c3ccc(OC(C)C)cc3)c2cc1-c1ccc(OC(C)C)cc1 | < 21 |
| Cc1cc2ncn(-c3ccc(OC(C)(C)C)cc3)c2cc1-c1ccc(OC(C)(C)O)cc1 | < 21 |

Target: hERG (KCNH2) (Homo sapiens, UniProt Q12809)
Assay: Inhibition of human ERG at 3 uM relative to control
Conditions: not given

Chain of hERG (KCNH2) (Q12809 whole entry): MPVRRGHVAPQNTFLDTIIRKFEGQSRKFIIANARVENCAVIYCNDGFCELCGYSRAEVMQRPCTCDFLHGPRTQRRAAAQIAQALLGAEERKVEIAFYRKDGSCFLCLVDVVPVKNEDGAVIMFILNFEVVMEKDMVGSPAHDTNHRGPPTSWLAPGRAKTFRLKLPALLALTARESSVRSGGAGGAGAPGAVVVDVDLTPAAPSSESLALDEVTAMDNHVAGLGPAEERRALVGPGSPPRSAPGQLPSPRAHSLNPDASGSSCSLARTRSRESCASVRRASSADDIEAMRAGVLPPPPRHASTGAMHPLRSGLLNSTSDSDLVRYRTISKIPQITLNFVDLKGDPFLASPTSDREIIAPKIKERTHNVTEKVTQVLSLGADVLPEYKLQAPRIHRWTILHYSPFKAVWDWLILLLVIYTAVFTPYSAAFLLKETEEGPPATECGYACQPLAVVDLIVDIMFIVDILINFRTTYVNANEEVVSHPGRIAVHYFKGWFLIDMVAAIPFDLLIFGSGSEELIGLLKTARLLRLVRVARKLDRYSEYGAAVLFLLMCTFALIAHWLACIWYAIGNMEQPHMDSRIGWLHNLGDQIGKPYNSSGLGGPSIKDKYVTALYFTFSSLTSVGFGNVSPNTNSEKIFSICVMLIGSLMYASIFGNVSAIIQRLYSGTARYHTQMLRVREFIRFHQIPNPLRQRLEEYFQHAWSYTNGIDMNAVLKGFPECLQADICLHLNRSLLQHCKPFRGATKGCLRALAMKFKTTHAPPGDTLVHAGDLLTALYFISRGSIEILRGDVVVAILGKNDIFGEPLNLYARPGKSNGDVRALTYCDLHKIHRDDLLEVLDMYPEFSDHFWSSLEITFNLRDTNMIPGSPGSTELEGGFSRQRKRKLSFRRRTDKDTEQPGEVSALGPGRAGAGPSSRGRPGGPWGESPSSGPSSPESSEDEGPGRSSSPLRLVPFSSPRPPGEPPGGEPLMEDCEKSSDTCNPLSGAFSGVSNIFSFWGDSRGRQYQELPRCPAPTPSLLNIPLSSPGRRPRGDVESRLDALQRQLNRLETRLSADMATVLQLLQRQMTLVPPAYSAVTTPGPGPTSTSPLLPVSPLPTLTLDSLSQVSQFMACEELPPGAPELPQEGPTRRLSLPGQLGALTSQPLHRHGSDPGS

| Compound | inhibition at 3 µM [%] |
| --- | --- |
| CC(C)Oc1ccc(-c2ccc3ncn(-c4ccc(OC(C)C)cc4)c3c2)cc1 | 30 |
| CC(C)Oc1ccc(-c2ccc3ncc(-c4ccc(OC(C)(C)C)cc4)n3c2)cc1 | 48 |
| Cc1cc2nnn(-c3ccc(OC(C)C)cc3)c2cc1-c1ccc(OC(C)C)cc1 | < 10 |
| CC(C)Oc1ccc(-c2ccc3nnc(-c4ccc(OC(C)C)cc4)n3c2)cc1 | 57 |
| CC(C)Oc1ccc(-c2ccc3ncc(-c4ccc(OC(C)C)cc4)n3c2)cc1 | 89 |
| CC(C)Oc1ccc(-c2cnc3ncc(-c4ccc(OC(C)C)cc4)n3c2)cc1 | 37 |
| Cc1cc2ncc(-c3ccc(OC(C)(C)C)cc3)n2cc1-c1ccc(OC(C)C)cc1 | < 10 |
| CC(C)Oc1ccc(-c2ccc3nnn(-c4ccc(OC(C)C)cc4)c3c2)cc1 | 17 |
| Cc1cc2ncc(-c3ccc(OC(C)C)cc3)n2cc1-c1ccc(OC(C)C)cc1 | 14 |
| Cc1cc2ncn(-c3ccc(OC(C)C)cc3)c2cc1-c1ccc(OC(C)C)cc1 | < 10 |
| Cc1cc2ncn(-c3ccc(OC(C)(C)C)cc3)c2cc1-c1ccc(OC(C)(C)O)cc1 | < 10 |
| CC(C)Oc1ccc(-c2ccc3ncn(-c4ccc(OC(C)C)cc4)c3n2)cc1 | < 10 |

Test system: Lassa virus
Assay: Antiviral activity against Lassa virus by virus yield reduction assay
Format: functional, organism-based
Conditions: Mammarenavirus lassaense

| Compound | EC50 [nM] | EC90 [nM] |
| --- | --- | --- |
| Cc1cc2ncc(-c3ccc(OC(C)(C)C)cc3)n2cc1-c1ccc(OC(C)C)cc1 | < 0.3 | 0.87 |
| Cc1cc2ncn(-c3ccc(OC(C)C)cc3)c2cc1-c1ccc(OC(C)C)cc1 | 1.2 | 2.1 |
| Cc1cc2ncn(-c3ccc(OC(C)(C)C)cc3)c2cc1-c1ccc(OC(C)(C)O)cc1 | < 0.3 | < 0.3 |

Test system: not listed separately
Assay: (§1) Cytotoxicity against African green monkey Vero cells measured after 5 days
Format: cell-based
Conditions: chlorocebus sabaeus, Vero cells; time 5 day

| Compound | CC50 at 120 h [nM] |
| --- | --- |
| CC(C)Oc1ccc(-c2ccn3cnc(-c4ccc(OC(C)C)cc4)c3c2)cc1 | 7540 |

Test system: Vero
Assay: as §1
Format: cell-based
Conditions: chlorocebus sabaeus, vero, 120 h; time 5 day

| Compound | CC50 [nM] |
| --- | --- |
| Cc1c(-c2ccc(OC(C)C)cc2)ccc2ncc(-c3ccc(OC(C)C)cc3)n12 | 4190 |

Target: CYP3A4 (Homo sapiens, UniProt P08684)
Assay: Inhibition of CYP3A4 (unknown origin) at 20 uM
Format: ADME
Conditions: not given

Chain of CYP3A4 (P08684 whole entry): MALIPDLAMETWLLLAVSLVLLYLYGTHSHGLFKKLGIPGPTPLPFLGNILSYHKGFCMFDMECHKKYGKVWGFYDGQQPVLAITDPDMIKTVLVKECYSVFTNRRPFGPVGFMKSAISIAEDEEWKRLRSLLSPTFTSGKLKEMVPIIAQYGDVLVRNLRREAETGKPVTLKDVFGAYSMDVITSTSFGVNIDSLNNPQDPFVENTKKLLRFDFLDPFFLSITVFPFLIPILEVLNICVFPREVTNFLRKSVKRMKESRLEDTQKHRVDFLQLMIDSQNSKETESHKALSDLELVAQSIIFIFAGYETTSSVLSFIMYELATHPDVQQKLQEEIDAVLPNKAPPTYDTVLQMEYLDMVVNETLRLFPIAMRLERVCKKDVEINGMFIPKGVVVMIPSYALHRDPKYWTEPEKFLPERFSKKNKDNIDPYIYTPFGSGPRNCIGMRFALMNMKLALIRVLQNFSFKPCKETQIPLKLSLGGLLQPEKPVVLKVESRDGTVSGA

| Compound | inhibition at 20 µM [%] |
| --- | --- |
| Cc1cc2ncc(-c3ccc(OC(C)(C)C)cc3)n2cc1-c1ccc(OC(C)C)cc1 | < 21 |
| Cc1cc2ncc(-c3ccc(OC(C)C)cc3)n2cc1-c1ccc(OC(C)C)cc1 | < 21 |
| Cc1cc2ncn(-c3ccc(OC(C)C)cc3)c2cc1-c1ccc(OC(C)C)cc1 | 44 |
| Cc1cc2ncn(-c3ccc(OC(C)(C)C)cc3)c2cc1-c1ccc(OC(C)(C)O)cc1 | < 21 |

Target: CYP2C19 (Homo sapiens, UniProt P33261)
Assay: Inhibition of CYP2C19 (unknown origin) at 20 uM
Format: ADME
Conditions: not given

Chain of CYP2C19 (P33261 whole entry): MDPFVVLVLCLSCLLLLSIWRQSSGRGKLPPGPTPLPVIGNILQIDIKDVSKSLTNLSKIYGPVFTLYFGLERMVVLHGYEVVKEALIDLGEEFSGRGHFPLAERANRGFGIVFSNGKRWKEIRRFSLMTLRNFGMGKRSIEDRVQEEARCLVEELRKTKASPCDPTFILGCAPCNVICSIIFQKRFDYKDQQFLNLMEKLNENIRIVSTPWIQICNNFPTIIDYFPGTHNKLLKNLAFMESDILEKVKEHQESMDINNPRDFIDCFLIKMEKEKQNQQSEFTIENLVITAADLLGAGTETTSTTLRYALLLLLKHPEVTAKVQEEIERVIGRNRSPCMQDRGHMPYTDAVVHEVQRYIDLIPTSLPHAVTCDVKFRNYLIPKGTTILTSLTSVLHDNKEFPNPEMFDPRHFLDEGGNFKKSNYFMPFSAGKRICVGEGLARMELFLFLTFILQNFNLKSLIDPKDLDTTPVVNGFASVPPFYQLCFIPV

| Compound | inhibition at 20 µM [%] |
| --- | --- |
| Cc1cc2ncc(-c3ccc(OC(C)(C)C)cc3)n2cc1-c1ccc(OC(C)C)cc1 | < 21 |
| Cc1cc2ncc(-c3ccc(OC(C)C)cc3)n2cc1-c1ccc(OC(C)C)cc1 | < 21 |
| Cc1cc2ncn(-c3ccc(OC(C)C)cc3)c2cc1-c1ccc(OC(C)C)cc1 | < 21 |
| Cc1cc2ncn(-c3ccc(OC(C)(C)C)cc3)c2cc1-c1ccc(OC(C)(C)O)cc1 | < 21 |

Test system: Lassa virus
Assay: Antiviral activity against pseudotyped Lassa mammarenavirus
Format: functional, organism-based
Conditions: Mammarenavirus lassaense

| Compound | EC50 [nM] |
| --- | --- |
| CC(C)Oc1ccc(-c2ccc3ccn(-c4ccc(OC(C)C)cc4)c3c2)cc1 | > 25 |
| CC(C)Oc1ccc(-c2ccc3cnc(-c4ccc(OC(C)C)cc4)n3c2)cc1 | > 25 |
| Cc1cc2nnn(-c3ccc(OC(C)C)cc3)c2cc1-c1ccc(OC(C)C)cc1 | 1.05 |
| CC(C)Oc1ccc(-c2cnc3ccc(-c4ccc(C(N)=O)cc4)cn23)cc1 | > 25 |
| Cc1cc2ncc(-c3ccc(OC(C)(C)C)cc3)n2cc1-c1ccc(OC(C)C)cc1 | 0.68 |
| CC(C)Oc1ccc(-c2cnc3ccc(-c4ccc(OC(C)C)cc4F)cn23)cc1 | > 25 |
| Cc1cc2ncn(-c3ccc(OC(C)C)cc3)c2cc1-c1ccc(OC(C)C)cc1 | 0.65 |
| Cc1c(-c2ccc(OC(C)C)cc2)ccc2ncc(-c3ccc(OC(C)C)cc3)n12 | 0.32 |
| Cc1cc2ncn(-c3ccc(OC(C)(C)C)cc3)c2cc1-c1ccc(OC(C)(C)O)cc1 | 4 |
| CC(C)Oc1ccc(-c2ccn3cnc(-c4ccc(OC(C)C)cc4)c3c2)cc1 | 20.9 |
| CC(C)Oc1ccc(-c2ccc3cnn(-c4ccc(OC(C)C)cc4)c3c2)cc1 | > 25 |
| CC(C)Oc1ccc(-c2cnc3ccc(-c4ccc(OCCN5CCOCC5)cc4)cn23)cc1 | > 25 |

Target: CYP2C9 (Homo sapiens, UniProt P11712)
Assay: Inhibition of CYP2C9 (unknown origin) at 20 uM
Format: ADME
Conditions: not given

Chain of CYP2C9 (P11712 whole entry): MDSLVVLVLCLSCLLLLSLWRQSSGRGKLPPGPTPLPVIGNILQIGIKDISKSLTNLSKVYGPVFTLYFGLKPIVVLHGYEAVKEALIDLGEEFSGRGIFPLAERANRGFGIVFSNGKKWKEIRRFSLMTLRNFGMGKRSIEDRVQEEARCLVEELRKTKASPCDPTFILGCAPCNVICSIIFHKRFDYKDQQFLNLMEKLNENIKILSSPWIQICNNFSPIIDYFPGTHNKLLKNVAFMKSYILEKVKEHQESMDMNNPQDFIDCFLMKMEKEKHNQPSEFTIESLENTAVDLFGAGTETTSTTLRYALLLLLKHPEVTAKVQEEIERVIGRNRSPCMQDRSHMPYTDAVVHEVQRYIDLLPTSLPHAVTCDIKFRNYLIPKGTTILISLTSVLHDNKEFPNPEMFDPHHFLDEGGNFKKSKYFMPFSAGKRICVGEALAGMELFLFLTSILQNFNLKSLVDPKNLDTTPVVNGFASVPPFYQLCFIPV

| Compound | inhibition at 20 µM [%] |
| --- | --- |
| Cc1cc2ncc(-c3ccc(OC(C)(C)C)cc3)n2cc1-c1ccc(OC(C)C)cc1 | < 21 |
| Cc1cc2ncc(-c3ccc(OC(C)C)cc3)n2cc1-c1ccc(OC(C)C)cc1 | < 21 |
| Cc1cc2ncn(-c3ccc(OC(C)C)cc3)c2cc1-c1ccc(OC(C)C)cc1 | < 21 |
| Cc1cc2ncn(-c3ccc(OC(C)(C)C)cc3)c2cc1-c1ccc(OC(C)(C)O)cc1 | < 21 |

Test system: Machupo mammarenavirus
Assay: Antiviral activity against pseudotyped Machupo virus
Format: functional, organism-based
Conditions: Mammarenavirus machupoense

| Compound | EC50 [nM] |
| --- | --- |
| CC(C)Oc1ccc(-c2ccc3ccn(-c4ccc(OC(C)C)cc4)c3c2)cc1 | 20.6 |
| CC(C)Oc1ccc(-c2ccc3cnc(-c4ccc(OC(C)C)cc4)n3c2)cc1 | > 25 |
| Cc1cc2nnn(-c3ccc(OC(C)C)cc3)c2cc1-c1ccc(OC(C)C)cc1 | 0.52 |
| CC(C)Oc1ccc(-c2cnc3ccc(-c4ccc(C(N)=O)cc4)cn23)cc1 | > 25 |
| Cc1cc2ncc(-c3ccc(OC(C)(C)C)cc3)n2cc1-c1ccc(OC(C)C)cc1 | 0.17 |
| CC(C)Oc1ccc(-c2cnc3ccc(-c4ccc(OC(C)C)cc4F)cn23)cc1 | > 25 |
| Cc1cc2ncn(-c3ccc(OC(C)C)cc3)c2cc1-c1ccc(OC(C)C)cc1 | 0.17 |
| Cc1c(-c2ccc(OC(C)C)cc2)ccc2ncc(-c3ccc(OC(C)C)cc3)n12 | 0.16 |
| Cc1cc2ncn(-c3ccc(OC(C)(C)C)cc3)c2cc1-c1ccc(OC(C)(C)O)cc1 | 0.12 |
| CC(C)Oc1ccc(-c2ccn3cnc(-c4ccc(OC(C)C)cc4)c3c2)cc1 | > 25 |
| CC(C)Oc1ccc(-c2ccc3cnn(-c4ccc(OC(C)C)cc4)c3c2)cc1 | > 25 |
| CC(C)Oc1ccc(-c2cnc3ccc(-c4ccc(OCCN5CCOCC5)cc4)cn23)cc1 | > 25 |

Target: CYP2D6 (Homo sapiens, UniProt P10635)
Assay: Inhibition of CYP2D6 (unknown origin) at 20 uM
Format: ADME
Conditions: not given

Chain of CYP2D6 (P10635 whole entry): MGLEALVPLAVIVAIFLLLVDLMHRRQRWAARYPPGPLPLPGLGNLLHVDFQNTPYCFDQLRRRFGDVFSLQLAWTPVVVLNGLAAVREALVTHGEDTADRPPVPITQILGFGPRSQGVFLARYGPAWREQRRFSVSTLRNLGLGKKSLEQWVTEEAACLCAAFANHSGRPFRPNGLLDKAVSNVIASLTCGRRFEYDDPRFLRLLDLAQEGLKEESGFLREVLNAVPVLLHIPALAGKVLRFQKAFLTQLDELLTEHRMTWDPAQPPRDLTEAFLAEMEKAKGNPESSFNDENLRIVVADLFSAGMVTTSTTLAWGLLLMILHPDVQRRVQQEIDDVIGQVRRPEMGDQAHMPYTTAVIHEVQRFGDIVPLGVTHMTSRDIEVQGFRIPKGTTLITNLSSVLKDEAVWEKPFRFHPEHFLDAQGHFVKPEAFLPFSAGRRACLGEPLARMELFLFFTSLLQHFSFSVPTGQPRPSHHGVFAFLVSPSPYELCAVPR

| Compound | inhibition at 20 µM [%] |
| --- | --- |
| Cc1cc2ncc(-c3ccc(OC(C)(C)C)cc3)n2cc1-c1ccc(OC(C)C)cc1 | < 21 |
| Cc1cc2ncc(-c3ccc(OC(C)C)cc3)n2cc1-c1ccc(OC(C)C)cc1 | < 21 |
| Cc1cc2ncn(-c3ccc(OC(C)C)cc3)c2cc1-c1ccc(OC(C)C)cc1 | < 21 |
| Cc1cc2ncn(-c3ccc(OC(C)(C)C)cc3)c2cc1-c1ccc(OC(C)(C)O)cc1 | < 21 |

Test system: Junin virus
Assay: Antiviral activity against Junin virus by virus yield reduction assay
Format: functional, organism-based
Conditions: Mammarenavirus juninense

| Compound | EC50 [nM] | EC90 [nM] |
| --- | --- | --- |
| Cc1cc2nnn(-c3ccc(OC(C)C)cc3)c2cc1-c1ccc(OC(C)C)cc1 | < 1 | 2.4 |
| Cc1cc2ncc(-c3ccc(OC(C)(C)C)cc3)n2cc1-c1ccc(OC(C)C)cc1 | 0.6 | 1.2 |
| Cc1cc2ncn(-c3ccc(OC(C)(C)C)cc3)c2cc1-c1ccc(OC(C)(C)O)cc1 | 0.9 | 6.2 |

Test system: Junin virus
Assay: Antiviral activity against pseudotyped Junin virus
Format: functional, organism-based
Conditions: Mammarenavirus juninense

| Compound | EC50 [nM] |
| --- | --- |
| CC(C)Oc1ccc(-c2ccc3ccn(-c4ccc(OC(C)C)cc4)c3c2)cc1 | 0.89 |
| CC(C)Oc1ccc(-c2ccc3cnc(-c4ccc(OC(C)C)cc4)n3c2)cc1 | > 25 |
| Cc1cc2nnn(-c3ccc(OC(C)C)cc3)c2cc1-c1ccc(OC(C)C)cc1 | 0.21 |
| CC(C)Oc1ccc(-c2cnc3ccc(-c4ccc(C(N)=O)cc4)cn23)cc1 | > 25 |
| Cc1cc2ncc(-c3ccc(OC(C)(C)C)cc3)n2cc1-c1ccc(OC(C)C)cc1 | 0.3 |
| CC(C)Oc1ccc(-c2cnc3ccc(-c4ccc(OC(C)C)cc4F)cn23)cc1 | > 25 |
| Cc1cc2ncn(-c3ccc(OC(C)C)cc3)c2cc1-c1ccc(OC(C)C)cc1 | 0.11 |
| Cc1c(-c2ccc(OC(C)C)cc2)ccc2ncc(-c3ccc(OC(C)C)cc3)n12 | 0.17 |
| Cc1cc2ncn(-c3ccc(OC(C)(C)C)cc3)c2cc1-c1ccc(OC(C)(C)O)cc1 | 1 |
| CC(C)Oc1ccc(-c2ccn3cnc(-c4ccc(OC(C)C)cc4)c3c2)cc1 | 21.8 |
| CC(C)Oc1ccc(-c2ccc3cnn(-c4ccc(OC(C)C)cc4)c3c2)cc1 | 14 |
| CC(C)Oc1ccc(-c2cnc3ccc(-c4ccc(OCCN5CCOCC5)cc4)cn23)cc1 | > 25 |

Test system: Lassa virus
Assay: Antiviral activity against Lassa virus by plaque reduction assay
Format: functional, organism-based
Conditions: Mammarenavirus lassaense

| Compound | EC50 [nM] | EC90 [nM] |
| --- | --- | --- |
| Cc1cc2ncc(-c3ccc(OC(C)(C)C)cc3)n2cc1-c1ccc(OC(C)C)cc1 | < 3.3 | < 3.3 |
| Cc1cc2ncn(-c3ccc(OC(C)C)cc3)c2cc1-c1ccc(OC(C)C)cc1 | < 3.3 | < 4.2 |
| Cc1cc2ncn(-c3ccc(OC(C)(C)C)cc3)c2cc1-c1ccc(OC(C)(C)O)cc1 | < 3.3 | < 3.3 |
